Laboratory results from publication PMC3004914, “Classification of Drugs Based on Properties of Sodium Channel Inhibition: A Comparative Automated Patch-Clamp Study” (PLoS ONE, 2010).
Like-named read-outs stand apart in the source and are kept apart here. Values belong to the compound of their own block, whether it stands above or below them.

Assays:
[1] = biological target: T1, rNav1.2 sodium channels (HEK-293 cells) (Rattus norvegicus, UniProt P04775); experiment: steady-state inactivation protocol (availability curves), QPatch automated patch-clamp; format: cell-based
T1 sequence (P04775 whole entry): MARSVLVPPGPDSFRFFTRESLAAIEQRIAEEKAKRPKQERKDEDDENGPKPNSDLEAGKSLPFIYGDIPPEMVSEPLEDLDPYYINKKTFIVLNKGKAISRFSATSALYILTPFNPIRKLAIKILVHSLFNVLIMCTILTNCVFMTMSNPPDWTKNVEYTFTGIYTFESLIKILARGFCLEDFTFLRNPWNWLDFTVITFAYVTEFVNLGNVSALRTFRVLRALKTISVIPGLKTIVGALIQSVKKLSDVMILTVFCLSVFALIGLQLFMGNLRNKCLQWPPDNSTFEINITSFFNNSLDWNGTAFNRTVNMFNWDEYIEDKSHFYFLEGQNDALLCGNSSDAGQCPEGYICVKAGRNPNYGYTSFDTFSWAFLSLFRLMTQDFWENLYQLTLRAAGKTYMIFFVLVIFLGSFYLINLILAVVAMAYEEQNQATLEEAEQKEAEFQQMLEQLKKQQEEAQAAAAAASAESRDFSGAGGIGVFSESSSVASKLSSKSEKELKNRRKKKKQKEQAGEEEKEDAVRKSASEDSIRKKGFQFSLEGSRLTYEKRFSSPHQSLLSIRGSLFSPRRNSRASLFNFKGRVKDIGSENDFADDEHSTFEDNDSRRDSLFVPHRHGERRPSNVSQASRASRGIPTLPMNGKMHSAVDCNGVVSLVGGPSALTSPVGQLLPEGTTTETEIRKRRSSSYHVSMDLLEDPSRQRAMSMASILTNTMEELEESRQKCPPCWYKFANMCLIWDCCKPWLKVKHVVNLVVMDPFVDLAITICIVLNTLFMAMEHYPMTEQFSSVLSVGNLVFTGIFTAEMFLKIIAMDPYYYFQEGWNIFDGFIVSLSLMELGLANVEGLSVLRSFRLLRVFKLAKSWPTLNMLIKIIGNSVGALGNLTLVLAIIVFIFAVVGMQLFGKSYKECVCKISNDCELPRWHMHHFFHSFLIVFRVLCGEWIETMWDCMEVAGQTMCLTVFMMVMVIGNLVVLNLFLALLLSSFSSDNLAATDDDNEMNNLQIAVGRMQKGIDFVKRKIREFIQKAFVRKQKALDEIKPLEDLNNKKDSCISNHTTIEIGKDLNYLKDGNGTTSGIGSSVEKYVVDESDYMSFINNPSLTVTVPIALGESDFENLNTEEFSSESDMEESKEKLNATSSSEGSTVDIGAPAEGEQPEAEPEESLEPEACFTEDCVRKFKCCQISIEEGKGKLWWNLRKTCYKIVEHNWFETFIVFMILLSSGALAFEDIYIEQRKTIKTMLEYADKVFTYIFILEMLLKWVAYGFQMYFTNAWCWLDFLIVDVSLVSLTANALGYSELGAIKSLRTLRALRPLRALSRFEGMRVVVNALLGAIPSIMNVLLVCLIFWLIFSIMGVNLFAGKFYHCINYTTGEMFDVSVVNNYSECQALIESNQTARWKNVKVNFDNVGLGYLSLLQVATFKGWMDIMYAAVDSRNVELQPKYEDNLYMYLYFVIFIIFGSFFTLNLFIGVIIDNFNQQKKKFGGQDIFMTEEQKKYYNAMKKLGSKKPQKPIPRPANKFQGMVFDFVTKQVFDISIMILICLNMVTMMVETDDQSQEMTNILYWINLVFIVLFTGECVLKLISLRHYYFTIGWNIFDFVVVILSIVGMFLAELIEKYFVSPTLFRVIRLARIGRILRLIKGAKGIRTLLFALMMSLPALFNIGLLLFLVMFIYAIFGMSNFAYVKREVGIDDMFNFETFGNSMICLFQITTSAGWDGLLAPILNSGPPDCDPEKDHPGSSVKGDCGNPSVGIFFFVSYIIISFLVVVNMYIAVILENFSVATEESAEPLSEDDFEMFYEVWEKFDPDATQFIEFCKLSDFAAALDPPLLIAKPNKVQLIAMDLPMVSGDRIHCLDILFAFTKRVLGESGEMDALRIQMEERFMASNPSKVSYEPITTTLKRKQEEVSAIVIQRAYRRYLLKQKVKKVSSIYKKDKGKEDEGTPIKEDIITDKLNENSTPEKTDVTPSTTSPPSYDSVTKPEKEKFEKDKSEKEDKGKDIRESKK
In short: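 HEK-293 cells stably expressing rat Nav1.2, recorded by automated patch clamp in extracellular solution pH 7.3 containing CdCl2 and TEA. Availability measured with 400 ms pre-pulses from −150 to −30 mV, then a 10 ms test pulse to −10 mV. Kr, Ki (four-state model) and Kr/Ki state-dependence derived from inhibition and ΔV1/2.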

[2] = biological target: T1, rNav1.2 sodium channels (HEK-293 cells); experiment: 5 Hz train protocol, QPatch automated patch-clamp; format: cell-based; conditions: for Rev (reversibility): Rev = A5/A1 after washout; for potency: in words;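 for UD (use-dependence of the inhibition): UD = (A3/A4)/(A1/A2) as ratios of peak amplitudes from Figure 1A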
In short: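 rNav1.2 in stable HEK-293 cells, QPatch whole-cell; 5 Hz trains of five pulses from −90 to −10 mV, repeated every 20 s; 10 control trains, 10 with drug, then washout. Inhibition of peak current at a single concentration gave IC50; reversibility, use-dependence and τoff also derived.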

[3] = human plasma, cited from earlier work
sodium channels [4] = conditions: averaged literature data, cited from earlier work; for Ki: read-out: Ki−Lit; for Kd: read-out: Kr−Lit
sodium channels [5] = conditions: cited from earlier work
[6] = arithmetic mean, 300 µM, read-out: Ki-Kapp arith
[7] = arithmetic mean, 300 µM, read-out: Ki-ΔV1/2 arith
[8] = arithmetic mean, 300 µM, read-out: Kr arith
[9] = geometric mean, from Inh at −150 mV, 300 µM, read-out: Kr (resting state affinity)
[10] = geometric mean, from apparent affinity, 300 µM, read-out: Ki−Kapp (inactivated state affinity)
[11] = geometric mean, from shift of availability curve, 300 µM, read-out: Ki−ΔV1/2 (inactivated state affinity)
[12] = 300 μM, 3 s assigned where too short to be resolved
[13] = HEK293, read-out: Inh (inhibited fraction)

- ΔV1/2 (shift of availability curve) ([1]; 300 μM): −4.93 mV
- inhibition at 300 µM ([1]; HEK293, 300 µM, read-out: Inh (inhibited fraction) at holding potential −150 mV): 12%
- Ki [1, 6]: 78.1 µM
- Ki [1, 7]: 172 µM
- Kd [1, 8]: 2950 µM
- Kd [1, 9]: 2540 µM
- Ki [1, 10]: 70.8 µM
- Ki [1, 11]: 150 µM
- τoff ([2]; 300 μM): 15.96 s
- τon [2, 12]: 5.20 s
- UD (use-dependence of the inhibition) ([2]; 300 μM, 5 Hz train): 1.01
- Rev (reversibility) ([2]; 300 μM): 0.75
- inhibition at 300 µM ([2]; HEK293, 300 μM, −90 mV holding potential, 5 Hz train, read-out: Inh (inhibited fraction)): 18%
- potency estimated from few doses ([2]; HEK293, calculated from Inh at single concentration 300 μM, −90 mV, 5 Hz train, read-out: IC50): 1390 µM
- potency [2]: among the least potent SCIs
SMILES: O=C1NC(=O)C(c2ccccc2)(c2ccccc2)N1 [DPH, 5,5-diphenyl-hydantoin]
- plasma conc. ([3]; as printed in each cell): 10 [44] µg/ml
- plasma conc. ([3]; as printed in the µg/ml cell): 39.64 µM
- Ki (sodium channels [4]): 16.2 µM
- Kd (sodium channels [4]): 701 µM

SMILES: CCN(CC)CC(=O)Nc1c(C)cccc1C [LID, Lidocaine]
- criterion of at least 60% inhibition at 10 µM concentration (sodium channels [5]): failed to fulfill this criteria
- inhibition at 300 µM ([1]; HEK293, read-out: Inh (inhibited fraction) at holding potential −150 mV): 9%
- Ki [1, 6]: 70.3 µM
- Ki [1, 7]: 114 µM
- Kd [1, 8]: 3340 µM
- Kd [1, 9]: 3190 µM
- Ki [1, 10]: 65.7 µM
- Ki [1, 11]: 89.6 µM
- τoff ([2]; 300 μM): 6 s
- τon [2, 12]: 3 s
- UD (use-dependence of the inhibition) ([2]; 300 μM, 5 Hz train): 1.14
- Rev (reversibility) ([2]; 300 μM): 0.95
- potency estimated from few doses ([2]; HEK293, read-out: IC50, calculated from Inh at single concentration 100 μM, −90 mV, 5 Hz train): 1050 µM
- potency estimated from few doses ([2]; HEK293, read-out: IC50, calculated from Inh at single concentration 300 μM, −90 mV, 5 Hz train): 977 µM
- potency estimated from few doses ([2]; HEK293, read-out: IC50, calculated from Inh at single concentration 1000 µM): 1270 µM
- inhibition at 100 µM [2, 13]: 9%
- inhibition at 300 µM [2, 13]: 23%
- inhibition at 1000 µM [2, 13]: 44%
- potency [2]: among the least potent SCIs
- potency estimated from few doses ([2]; read-out: IC50, calculated from Inh at single concentration 300 μM, −90 mV, 5 Hz train): 1080 µM

- ΔV1/2 (shift of availability curve) ([1]; 30 μM): −18.4 mV
- inhibition at 30 µM ([1]; HEK293, 30 µM, read-out: Inh (inhibited fraction) at holding potential −150 mV): 32%
- Ki ([1]; arithmetic mean, 30 µM, read-out: Ki-Kapp arith): 1.03 µM
- Ki ([1]; arithmetic mean, 30 µM, read-out: Ki-ΔV1/2 arith): 0.33 µM
- Kd ([1]; arithmetic mean, 30 µM, read-out: Kr arith): 85.8 µM
- Kd ([1]; geometric mean, from Inh at −150 mV, 30 µM, read-out: Kr (resting state affinity)): 69.6 µM
- Ki ([1]; geometric mean, from apparent affinity, 30 µM, read-out: Ki−Kapp (inactivated state affinity)): 0.82 µM
- Ki ([1]; geometric mean, from shift of availability curve, 30 µM, read-out: Ki−ΔV1/2 (inactivated state affinity)): 0.29 µM
- τon ([2]; 30 μM): 14.81 s
- UD (use-dependence of the inhibition) ([2]; 30 μM, 5 Hz train): 1.30
- τoff ([2]; 30 μM, 500 s assigned where irreversible): 9.67 s
- Rev (reversibility) ([2]; 30 μM): 0.07
- inhibition at 30 µM ([2]; HEK293, 30 μM, −90 mV holding potential, 5 Hz train, read-out: Inh (inhibited fraction)): 41%
- potency estimated from few doses ([2]; HEK293, calculated from Inh at single concentration 30 μM, −90 mV, 5 Hz train, read-out: IC50): 47.3 µM
SMILES: CN(C)CCCN1c2ccccc2Sc2ccc(Cl)cc21 [CPM, Chlorpromazine]
- plasma conc. ([3]; as printed in each cell): 0.1 [44] µg/ml
- plasma conc. ([3]; as printed in the µg/ml cell): 0.281 µM
- Ki (sodium channels [4]): 0.19 µM
- Kd (sodium channels [4]): 3.18 µM

- ΔV1/2 (shift of availability curve) ([1]; 100 μM): −1.77 mV
- inhibition at 100 µM ([1]; HEK293, 100 µM, read-out: Inh (inhibited fraction) at holding potential −150 mV): 29%
- Ki ([1]; arithmetic mean, 100 µM, read-out: Ki-Kapp arith): 32.6 µM
- Ki ([1]; arithmetic mean, 100 µM, read-out: Ki-ΔV1/2 arith): 119 µM
- Kd ([1]; arithmetic mean, 100 µM, read-out: Kr arith): 248 µM
- Kd ([1]; geometric mean, from Inh at −150 mV, 100 µM, read-out: Kr (resting state affinity)): 242 µM
- Ki ([1]; geometric mean, from apparent affinity, 100 µM, read-out: Ki−Kapp (inactivated state affinity)): 28.5 µM
- Ki ([1]; geometric mean, from shift of availability curve, 100 µM, read-out: Ki−ΔV1/2 (inactivated state affinity)): 110 µM
- τon ([2]; 100 μM): 3.51 s
- UD (use-dependence of the inhibition) ([2]; 100 μM, 5 Hz train): 0.99
- τoff ([2]; 100 μM, 500 s assigned where irreversible): 8.98 s
- Rev (reversibility) ([2]; 100 μM): 0.93
- inhibition at 100 µM ([2]; HEK293, 100 μM, −90 mV holding potential, 5 Hz train, read-out: Inh (inhibited fraction)): 32%
- potency estimated from few doses ([2]; HEK293, calculated from Inh at single concentration 100 μM, −90 mV, 5 Hz train, read-out: IC50): 230 µM
SMILES: CC12CC3CC(C)(C1)CC(N)(C3)C2 [MEM, Memantine]
- plasma conc. ([3]; as printed in each cell): 0.02 [53] µg/ml
- plasma conc. ([3]; as printed in the µg/ml cell): 0.075 µM
- Ki (sodium channels [4]): 6.67 µM
- Kd (sodium channels [4]): 178 µM
